# Patent publication US20230131899A1, “INHIBITORS OF MICROBIALLY INDUCED AMYLOID” (Axial Therapeutics, Inc., priority 2020, published 2023)
# Where two headings read alike, the source gives them in different places.
# Key:
# [1] = tested on: CsgA gene expression (csgBAC promoter-GFP reporter) in E. coli UTI89; test: In vitro live cell fluorescent reporter assay of CsgA transcription (Reporter Assay); assay type: cell-based; settings: Escherichia coli
# Summary of the method: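 Chromosomal single-copy csgBAC promoter–GFP reporter in E. coli UTI89, started at OD600 0.003 in YESCA broth with compound (0.14–100 μM, 1% DMSO), 20 h at 27 °C. GFP (ex 485/em 525 nm) background-subtracted and normalized to vehicle; IC50 and X[50] from curve fits. OD600 tracked growth effects.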
# E. coli CsgA = target: T1, E. coli CsgA (Escherichia coli, UniProt P28307); test: In vitro ThioflavinT assay of CsgA aggregation (CsgA ThT Assay); assay type: biochemical; settings: for remaining activity at 25 µM: compound 25 μM; for remaining activity at 100 µM: compound 100 μM
# T1 construct: made in house; host or cells: E. coli NEB 3016 slyD::kan, pET11d
# Summary of the method: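 Purified C-terminal His-tagged CsgA, monomerised by desalting and 30-kDa filtration, at 2-20 μM with 20-40 μM ThT in 50 mM potassium phosphate pH 7.3, 1% DMSO, compounds 3.125-200 uM; room temperature, fluorescence (ex 438/em 495 nm) read every 15 min. Background-subtracted signal expressed as percent inhibition versus vehicle at 6-6.5 or 8-9 h, or as percent control AUC.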
# [2] = read-out: Reporter Assay Abs IC50 (activity range), median Abs IC50 in the CsgA reporter assay, class symbol
# [3] = read-out: Reporter Assay Abs IC50 (μM), median Abs IC50 in the CsgA reporter assay, N/A = maximum expression reduction is <50% of control
# [4] = read-out: CsgA ThT Assay (10 μM CsgA) % Control AUC at 1005 minutes, 25 μM (activity range), CsgA 10 μM, black plates, 1005 minutes, class symbol
# [5] = read-out: CsgA ThT Assay (10 μM CsgA) % Control AUC at 1005 minutes, 25 μM, mean AUC as % of DMSO control, CsgA 10 μM, black plates, 1005 minutes
# [6] = read-out: CsgA ThT Assay (10 μM CsgA) % Control AUC at 1005 minutes, 100 μM (activity range), CsgA 10 μM, black plates, 1005 minutes, class symbol
# [7] = read-out: CsgA ThT Assay (10 μM CsgA) % Control AUC at 1005 minutes, 100 μM, mean AUC as % of DMSO control, CsgA 10 μM, black plates, 1005 minutes
# [8] = read-out: Reporter Assay Abs IC50, activity range, class symbol
# [9] = read-out: CsgA ThT Assay (2 μM CsgA) % Control Bmax 25 μM, activity range, class symbol, CsgA 2 μM, white plates
# [10] = read-out: CsgA ThT Assay (2 μM CsgA) % Control Bmax 25 μM, mean Bmax as percentage of DMSO control, CsgA 2 μM, white plates
# [11] = read-out: CsgA ThT Assay (2 μM CsgA) % Control Bmax 100 μM, activity range, class symbol, CsgA 2 μM, white plates
# [12] = read-out: CsgA ThT Assay (2 μM CsgA) % Control Bmax 100 μM, mean Bmax as percentage of DMSO control, CsgA 2 μM, white plates
# T1 sequence (P28307 23-151): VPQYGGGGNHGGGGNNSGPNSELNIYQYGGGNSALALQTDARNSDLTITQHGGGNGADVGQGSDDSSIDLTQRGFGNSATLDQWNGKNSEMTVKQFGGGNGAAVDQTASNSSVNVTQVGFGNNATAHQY
SMILES,"IC50 [1, 2]","IC50 [1, 3]",remaining activity at 25 µM (E. coli CsgA; [4]),remaining activity at 25 µM (E. coli CsgA; [5]),remaining activity at 100 µM (E. coli CsgA; [6]),remaining activity at 100 µM (E. coli CsgA; [7]),"IC50 [1, 8]",remaining activity at 25 µM (E. coli CsgA; [9]),remaining activity at 25 µM (E. coli CsgA; [10]),remaining activity at 100 µM (E. coli CsgA; [11]),remaining activity at 100 µM (E. coli CsgA; [12])
"CN1CC(C(=O)O)n2c(c(-c3cccc(C(F)(F)F)c3)c(Cc3cccc4ccccc34)c(CO)c2=O)S1(=O)=O (stereo not shown) [Compound 077, 7-(hydroxymethyl)-2-methyl-8-(naphthalen-1-ylmethyl)-6-oxo-9-(3-(trifluoromethyl)phenyl)-3,4-dihydro-2H,6H-pyrido[1,2-e][1,2,5]thiadiazine-4-carboxylic acid 1,1-dioxide]",> 10 µM,51.6 µM,> 60%,97%,> 60%,87%,,,,,
"CCN1CC(C(=O)O)n2c(c(-c3cccc(C(F)(F)F)c3)c(Cc3cccc4ccccc34)cc2=O)S1(=O)=O (racemic) [Compound 015, 2-ethyl-8-(naphthalen-1-ylmethyl)-6-oxo-9-(3-(trifluoromethyl)phenyl)-3,4-dihydro-2H,6H-pyrido[1,2-e][1,2,5]thiadiazine-4-carboxylic acid 1,1-dioxide]",4.6 to 10 µM,8 µM,11 to 31%,28%,11 to 31%,27%,,,,,
"O=C(O)[C@H]1CN(Cc2ccccc2)c2c(-c3cccc(C(F)(F)F)c3)c(Cc3cccc4ccccc34)c(Br)c(=O)n21 (single isomer, unassigned) [Compound 190]",,1.6 µM,,,,,1.3 to 4.5 µM,> 60%,63%,31 to 60%,56%
"O=C(O)C1CN(Cc2ccccc2)c2c(-c3cccc(C(F)(F)F)c3)c(Cc3ccccc3)c(Cl)c(=O)n21 (stereo not shown) [Compound 214, 1,7-dibenzyl-6-chloro-5-oxo-8-(3-(trifluoromethyl)phenyl)-1,2,3,5-tetrahydroimidazo[1,2-a]pyridine-3-carboxylic acid]",,1.8 µM,,,,,1.3 to 4.5 µM,> 60%,90%,> 60%,84%
"O=C(O)C1CN(Cc2ccccn2)c2c(-c3cccc(C(F)(F)F)c3)c(Cc3cccc4ccccc34)c(Cl)c(=O)n21 (stereo not shown) [Compound 166, 6-chloro-7-(naphthalen-1-ylmethyl)-5-oxo-1-(pyridin-2-ylmethyl)-8-(3-(trifluoromethyl)phenyl)-1,2,3,5-tetrahydroimidazo[1,2-a]pyridine-3-carboxylic acid]",,2.5 µM,,,,,1.3 to 4.5 µM,> 60%,72%,31 to 60%,40%
"O=c1cc(Cc2cccc3ccccc23)c(-c2cccc(C(F)(F)F)c2)c2n1C(CO)CS2 (stereo not shown) [Compound 118, 3-(hydroxymethyl)-7-(naphthalen-1-ylmethyl)-8-(3-(trifluoromethyl)phenyl)-2,3-dihydro-5H-thiazolo[3,2-a]pyridin-5-one]",1.3 to 4.5 µM,3.9 µM,> 60%,92%,> 60%,76%,,,,,
"O=C(O)C1CN(CC2CCCC2)S(=O)(=O)c2c(-c3cccc(C(F)(F)F)c3)c(Cc3cccc4ccccc34)c(NC3CCCC3)c(=O)n21 (stereo not shown) [Compound 002, 7-(cyclopentylamino)-2-(cyclopentylmethyl)-8-(naphthalen-1-ylmethyl)-6-oxo-9-(3-(trifluoromethyl)phenyl)-3,4-dihydro-2H,6H-pyrido[1,2-e][1,2,5]thiadiazine-4-carboxylic acid 1,1-dioxide]",,4.1 µM,,,,,1.3 to 4.5 µM,31 to 60%,60%,> 60%,137%
"CN1CC(C(=O)O)n2c(c(-c3cccc(C(F)(F)F)c3)c(Cc3cccc4ccccc34)c(C(O)CO)c2=O)S1(=O)=O (stereo not shown) [Compound 101, 7-(1,2-dihydroxyethyl)-2-methyl-8-(naphthalen-1-ylmethyl)-6-oxo-9-(3-(trifluoromethyl)phenyl)-3,4-dihydro-2H,6H-pyrido[1,2-e][1,2,5]thiadiazine-4-carboxylic acid 1,1-dioxide]",> 10 µM,29 µM,> 60%,61%,11 to 31%,15%,,,,,
CCCCCN1CC(C(=O)O)n2c(c(-c3cccc(C(F)(F)F)c3)c(Cc3ccc(N)c4ccccc34)cc2=O)S1(=O)=O (stereo not shown) [Compound 052],< 1.3 µM,1.1 µM,31 to 60%,42%,11 to 31%,20%,,,,,
"CCCN1CC(C(=O)O)n2c(cc(Cc3cccc4ccccc34)c(NC3CCCC3)c2=O)S1(=O)=O (stereo not shown) [Compound 006, 7-(cyclopentylamino)-8-(naphthalen-1-ylmethyl)-6-oxo-2-propyl-3,4-dihydro-2H,6H-pyrido[1,2-e][1,2,5]thiadiazine-4-carboxylic acid 1,1-dioxide]",,70 µM,,,,,> 10 µM,> 60%,66%,31 to 60%,34%
"O=C(O)C1CN(Cc2ccccc2)c2c(-c3cccc(C(F)(F)F)c3)c(Cc3cccc4cnccc34)c(Cl)c(=O)n21 (stereo not shown) [Compound 212, 1-benzyl-6-chloro-7-(isoquinolin-5-ylmethyl)-5-oxo-8-(3-(trifluoromethyl)phenyl)-1,2,3,5-tetrahydroimidazo[1,2-a]pyridine-3-carboxylic acid]",,13 µM,,,,,> 10 µM,> 60%,64%,31 to 60%,56%
"CCc1c(Cc2cccc3ccccc23)c(-c2cccc(C(F)(F)F)c2)c2n(c1=O)C(C(=O)O)CN(CCCCO)S2(=O)=O (stereo not shown) [Compound 113, 7-ethyl-2-(4-hydroxybutyl)-8-(naphthalen-1-ylmethyl)-6-oxo-9-(3-(trifluoromethyl)phenyl)-3,4-dihydro-2H,6H-pyrido[1,2-e][1,2,5]thiadiazine-4-carboxylic acid 1,1-dioxide]",4.6 to 10 µM,4.6 µM,31 to 60%,41%,11 to 31%,24%,,,,,
"O=C(O)c1c(Cc2ccccc2)sc2c(-c3cccc(C(F)(F)F)c3)c(Cc3cccc4ccccc34)cc(=O)n12 [Compound 060, 2-benzyl-7-(naphthalen-1-ylmethyl)-5-oxo-8-(3-(trifluoromethyl)phenyl)-5H-thiazolo[3,2-a]pyridine-3-carboxylic acid]",1.3 to 4.5 µM,1.4 µM,> 60%,91%,> 60%,98%,,,,,
"Cn1c(=O)c2c(ncn2CCCCCCN2CC(C(=O)O)n3c(c(-c4cccc(C(F)(F)F)c4)c(Cc4cccc5ccccc45)cc3=O)S2(=O)=O)n(C)c1=O (stereo not shown) [Compound 035, 2-(6-(1,3-dimethyl-2,6-dioxo-1,2,3,6-tetrahydro-7H-purin-7-yl)hexyl)-8-(naphthalen-1-ylmethyl)-6-oxo-9-(3-(trifluoromethyl)phenyl)-3,4-dihydro-2H,6H-pyrido[1,2-e][1,2,5]thiadiazine-4-carboxylic acid 1,1-dioxide]",1.3 to 4.5 µM,1.5 µM,> 60%,65%,,,,,,,
